Test results as given in PMC9127750, “Structure-based design of CDC42 effector interaction inhibitors for the treatment of cancer” (Cell reports, 2022).
Several values for one entry are separate records, joined by “and”; a condition that tells them apart may be missing. Equal entries are not always repeated.

Tested on: WM3248 melanoma cells, 486 antibodies
Test: Reverse phase protein arrays (RPPA)
Format: cell-based, Human
Excerpt: Pellets were snap frozen in liquid nitrogen and shipped to MD Anderson Cancer Center core RPPA facility for RPPA analysis (Table S5). Three biological replicates for each sample were generated.
Nomenclatures on the RPPA heatmaps: name_of_antibody.species_of_antibody.status_of_antibody. V - antibody validated; C - validation of antibody in progress; Q - antibody nonspecific; E – under evaluation; antibodies raised in M - mouse, G - goat, R - rabbit, or T - rat.

CN(C)c1cccc(Nc2cc(-c3ccccc3)nc(C3CCNCC3)n2)c1 [ARN22089, N1,N1-dimethyl-N3-(6-phenyl-2-(piperidin-4-yl)pyrimidin-4-yl)benzene-1,3-diamine]
RPPA Gab2.R.V (10 uM, single samples): 0.930 and 0.844
RPPA Gli1.R.C (10 uM, single samples): 0.975 and 0.972
RPPA Gli3.R.C (10 uM, single samples): 0.999 and 0.965 and 0.950
RPPA Glucocorticoid.Receptor.R.V (10 uM, single samples): 1.129 and 1.132 and 0.984
RPPA Glutamate.D1.2.R.V (10 uM, single samples): 1.103 and 0.990
RPPA Glutaminase.R.C (10 uM, single samples): 0.915 and 0.958 and 0.933
RPPA Granzyme.B.R.V (10 uM, single samples): 0.958 and 0.982 and 0.983
RPPA Grp75.R.C (10 uM, single samples): 1.161 and 1.138 and 0.943
RPPA Gys.R.V (10 uM, single samples): 0.976 and 0.935 and 1.023
RPPA Gys_pS641.R.V (10 uM, single samples): 0.940 and 1.033 and 1.049
RPPA H2AX_pS139.R.C (10 uM, single samples): 1.009 and 0.918
RPPA H2AX_pS140.M.C (10 uM, single samples): 1.079 and 1.061
RPPA HER2.M.V (10 uM, single samples): 1.048
RPPA HER2_pY1248.R.V (10 uM, single samples): 0.857 and 0.890 and 0.990
RPPA HER3.R.V (10 uM, single samples): 1.151 and 0.962 and 0.842
RPPA HER3_pY1289.R.C (10 uM, single samples): 0.893 and 0.994
RPPA HES1.R.V (10 uM, single samples): 0.925 and 1.199 and 0.845
RPPA Heregulin.R.V (10 uM, single samples): 0.811 and 0.959 and 0.936
RPPA eEF2K.R.V (10 uM, single samples): 1.065
RPPA eIF4E.R.V (10 uM, single samples): 1.415 and 0.768 and 0.752
RPPA eIF4E_pS209.R.V (10 uM, single samples): 0.931 and 1.049 and 1.085
RPPA eIF4G.R.C (10 uM, single samples): 1.057 and 0.870 and 0.859
RPPA MYH11.R.C Average (20 uM): 1.101
RPPA Myosin.IIa.R.C Average (20 uM): 0.941
RPPA Myosin.IIa_pS1943.R.V Average (20 uM): 0.973
RPPA Myt1.R.C Average (20 uM): 1.012
RPPA N.Cadherin.R.V Average (20 uM): 1.035
RPPA N.Ras.M.V Average (20 uM): 0.928
RPPA NAPSIN.A.R.C Average (20 uM): 1.046
RPPA NDRG1_pT346.R.V Average (20 uM): 0.991
RPPA NDUFB4.R.V Average (20 uM): 1.026
RPPA NRF2.R.C Average (20 uM): 0.936
RPPA Notch1.cleaved.R.V Average (20 uM): 0.890
RPPA Oct.4.R.C Average (20 uM): 1.121
RPPA P.Cadherin.R.C Average (20 uM): 1.190
RPPA PAICS.R.C Average (20 uM): 0.891
RPPA PAK1.R.V Average (20 uM): 0.919
RPPA PAK_pS474_S602_S560.R.V Average (20 uM): 1.203
RPPA PAK_pT423_T402.R.C Average (20 uM): 1.013
RPPA PAR.R.C Average (20 uM): 1.051
RPPA PARG.R.C Average (20 uM): 1.310
RPPA PARP.R.V Average (20 uM): 0.981
RPPA PAX6.R.V Average (20 uM): 1.013
RPPA PAX8.R.C Average (20 uM): 0.970
RPPA PCNA.M.C Average (20 uM): 0.864
RPPA PD.L1.R.C Average (20 uM): 0.983
RPPA PDH.M.V Average (20 uM): 0.994
RPPA PDHA1.R.V Average (20 uM): 1.030
RPPA PDHK1.R.C Average (20 uM): 0.963
RPPA PDK1.R.V Average (20 uM): 1.096
RPPA PDK1_pS241.R.V Average (20 uM): 0.972
RPPA PEA.15.R.V Average (20 uM): 0.952
RPPA PEA.15_pS116.R.V Average (20 uM): 1.019
RPPA PERK.R.V Average (20 uM): 0.988
RPPA PGM1.R.V Average (20 uM): 0.940
RPPA PHGDH.R.C Average (20 uM): 0.998
RPPA PHLPP.R.V Average (20 uM): 1.124
RPPA PI3K.p85.R.C Average (20 uM): 0.900
RPPA PI3K.p110.a.R.C Average (20 uM): 0.931
RPPA PKA.a.R.V Average (20 uM): 0.928
RPPA PKC.a.b.II_pT638_T641.R.V Average (20 uM): 0.926
RPPA PKC.b.II_pS660.R.V Average (20 uM): 1.079
RPPA PKCa.R.V Average (20 uM): 1.559
RPPA PKM2.R.C Average (20 uM): 0.899
RPPA PLC.gamma1_pS1248.R.V Average (20 uM): 0.895
RPPA PLC.gamma2_pY759.R.V Average (20 uM): 0.983
RPPA PLK1.R.C Average (20 uM): 0.920
RPPA PMS2.R.V Average (20 uM): 0.986
RPPA PR.R.V Average (20 uM): 0.956
RPPA PRAS40.M.C Average (20 uM): 1.227
RPPA PRAS40_pT246.R.V Average (20 uM): 1.102
RPPA PRC1_pT481.R.C Average (20 uM): 1.084
RPPA Patched.R.C Average (20 uM): 1.079
RPPA Paxillin.R.C Average (20 uM): 0.827
RPPA Pdcd4.R.C Average (20 uM): 0.990
RPPA Porin.M.V Average (20 uM): 1.051
RPPA p21.R.C Average (20 uM): 0.828
RPPA p27.Kip1.R.C Average (20 uM): 1.157
RPPA p27_pT157.R.C Average (20 uM): 1.214
RPPA p27_pT198.R.V Average (20 uM): 1.156
RPPA p38.MAPK.R.V Average (20 uM): 0.981
